What all share (assay type): functional, cell-based
The test system of test [1] is HL-60. Description: Cytotoxicity against human HL-60 cells assessed as reduction in cell viability after 48 hrs by MTS assay. Particulars: HL-60, 48 h.
The subject of test [2] is SMMC-7721. Description: Cytotoxicity against human SMMC-7721 cells assessed as reduction in cell viability after 48 hrs by MTS assay. The note with it: SMMC-7721, 48 h. A general note: Tetrazolium assays rely on reduction of a dye to a coloured formazan, in cell work by metabolically active cells.
In test [3] the test system is A549. As to the kind of experiment: Cytotoxicity against human A549 cells assessed as reduction in cell viability after 48 hrs by MTS assay. Particulars: A549, 48 h.
Test [4] relates to MCF7. Description: Cytotoxicity against human MCF7 cells assessed as reduction in cell viability after 48 hrs by MTS assay. The note with it: MCF7, 48 h.
Test [5] concerns SW480. Description: Cytotoxicity against human SW480 cells assessed as reduction in cell viability after 48 hrs by MTS assay. Particulars: SW480, 48 h.
The test system of test [6] is RAW264.7. As to the kind of experiment: Inhibition of LPS-induced NO production in mouse RAW264.7 cells at 50 uM incubated for 18 hrs by Griess reagent based assay. (Nitrite, measured by Griess reagent, commonly stands in for NO production.)

For 2 molecules, IC50 and inhibition results are on record in ChEMBL document CHEMBL4673283, “Penisarins A and B, Sesquiterpene Coumarins Isolated from an Endophytic Penicillium sp” (J Nat Prod, 2020).

Active and inactive are the calls of the source. The calls are words filed in the database; no cut-off is given here.

On to `COc1cc(C)c2c3c(c(=O)oc2c1)C[C@@H]([C@@]1(C)CC[C@H]2C(C)(C)C(=O)CC[C@@]21C)O3`, for which the IC50 in test [1], in test [2], in test [3], in test [4] and in test [5] was over 40 µM throughout. In test [6], the inhibition result is “inactive”.

On to `COc1cc(C)c2c3c(c(=O)oc2c1)C[C@@H]([C@@]1(C)CC[C@H]2C(C)(C)[C@@H](O)CC[C@@]21C)O3`, for which the IC50 in test [1] came out at 3.6 µM; in test [2] it was 3.7 µM; in test [3], 15.3 µM; in test [4], 13 µM; in test [5], 27.1 µM. In addition, the inhibition entry in test [6] was “inactive”.

A word on the IC50: it is the midpoint of a concentration-inhibition curve.
